Assay results taken from patent publication US10246483B2, “Bile acid analogs as FXR/TGR5 agonists and methods of use thereof” (ENANTA PHARMACEUTICALS, INC., priority 2015, dated 2019).
pEC50: −log10 of the molar value.

Biological target: T1, human FXR (NR1H4) (Homo sapiens, UniProt Q96RI1)
T1 construct: host or cells: CHO (Chinese hamster ovary) reporter cells
T1 sequence (Q96RI1 1-486): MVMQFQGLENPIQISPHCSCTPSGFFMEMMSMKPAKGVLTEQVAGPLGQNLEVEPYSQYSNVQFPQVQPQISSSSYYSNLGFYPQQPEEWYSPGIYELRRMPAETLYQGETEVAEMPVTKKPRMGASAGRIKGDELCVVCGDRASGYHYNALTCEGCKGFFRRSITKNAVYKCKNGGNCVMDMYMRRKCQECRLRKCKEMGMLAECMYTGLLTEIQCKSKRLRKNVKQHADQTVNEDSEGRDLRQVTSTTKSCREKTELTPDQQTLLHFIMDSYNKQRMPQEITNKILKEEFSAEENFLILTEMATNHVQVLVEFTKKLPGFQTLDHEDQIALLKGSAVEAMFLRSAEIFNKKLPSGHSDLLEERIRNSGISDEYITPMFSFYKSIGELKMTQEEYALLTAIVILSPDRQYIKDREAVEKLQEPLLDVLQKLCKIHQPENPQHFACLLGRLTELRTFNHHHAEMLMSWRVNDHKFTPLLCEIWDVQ
Assay: Human FXR (NR1H4) reporter assay (Gal4 promoter driven transactivation, luciferase)
Format: cell-based
Description: Human FXR (NR1H4) Assay Determination of a ligand mediated Gal4 promoter driven transactivation to quantify ligand binding mediated activation of FXR. FXR Reporter Assay kit purchased from Indigo Bioscience (Catalogue number: IB00601) to determine the potency and efficacy of compound developed by Enanta that can induce FXR activation. The principle application of this reporter assay system is to quantify functional activity of human FXR. The assay utilizes non-human mammalian cells, CHO (Chinese hamster ovary) cells engineered to express human NR1H4 protein (referred to as FXR). Reporter cells also incorporate the cDNA encoding beetle luciferase which catalyzes the substrates and yields photon emission. Luminescence intensity of the reaction is quantified using a plate-reading luminometer, Envision. […] Thus, quantifying changes in luciferase expression in the treated reporter cells provides a sensitive surrogate measure of the changes in FXR activity. […] Thirty minutes before intending to quantify FXR activity, remove Detection Substrate and Detection Buffer from the refrigerator and place them in a low-light area so that they may equilibrate to room temperature. […] Set the instrument (Envision) to perform a single 5 second “plate shake” prior to reading the first assay well. Read time may be 0.5 second (500 mSec) per well.

CC[C@@H]1C2C[C@H](O)CCC2(C)[C@H]2CCC3(C)C([C@H](C)CCC(=O)NC(=N)Nc4ccccc4)CC[C@H]3[C@@H]2[C@@H]1O (some centres unmarked) [Example 1]
pEC50: 6.00 to 7.00
Efficacy (%) (CHO reporter cells expressing human NR1H4, normalized to CDCA set as 100%): 248%
